Test results from patent publication US20110311621A1, “PHARMACEUTICAL COMPOSITIONS AND METHODS OF DELVERY” (priority 2010, published 2011).

Experiments:
[1] = Aliskiren bioavailability after jejunal administration to conscious rats, compared with oral solution by gavage; conditions: AUC relative to aliskiren oral solution (gavage)
From the text: (i) Jejunal Administration to Conscious rats
To test the bioavailability of formulations in the jejunum of conscious rats, a specialized rat model was established in which two different cannulas are surgically implanted in male Sprague-Dowley rats (other rats may also be used): • 1—jejunal cannula to bypass the stomach and enable direct formulation administration to the jejunum; and • 2—jugular vein cannula to determine the systematic levels of the administered dextran following jejunal administration.
Rats were allowed to recover for 4 days before the study and were deprived of food for 18 hours before the start of the study. […]
Blood samples were drawn from the jugular vein at an appropriate series of times post jejunal administration and post IV administration, (or post SC administration), plasma was prepared and levels of active ingredient were determined in each sample. The average absolute Bioavailability (aBA) achieved after jejunal administration of the formulation is calculated as described below.
Exposure values, AUC (0-T), are calculated from the area under the serum concentration versus time curve (AUC) and are determined for jejunal and intravenous administration (or SC administration). […]

conscious rats = assay: Effect of CCK-8 on food intake: volume of D-glucose solution consumed by conscious rats; type: in vivo, Sprague Dawley rats; conditions: 0.165 mg CCK-8 per rat; 30 min post administration
Procedure: Three of the above formulations (R, S and T) were prepared as follows for use in testing biological activity: Formulation R at levels of 0.165, 0.055, 0.003 mg CCK-8 per rat; Formulation S at 0.09 mg CCK-8 per rat; and Formulation T at 0.09 mg CCK-8 per rat. Thus Formulation R with 0.055 CCK-8 (% w/w) was used at 0.3 and 0.1 ml per rat to give a dose of 0.165 and 0.055 (mg per rat); Formulation R with 0.001 CCK-8 (% w/w) was used at 0.3 ml per rat to give a dose of 0.003 mg per rat; and Formulations S and T with 0.03 CCK-8 (% w/w) were both used at 0.3 ml to give a dose of 0.09 mg per rat.
The effect of oral administration of CCK8 on food intake was achieved by measuring the volume of D-glucose consumed by conscious rats (essentially using the method described by Chun-Min et al., Am. Physio. Soc. 296:R43-R50, 2009). The feeding response of conscious rats to exogenous oral CCK-8 was analyzed by measuring the volume of D-glucose solution consumed. Sprague Dawley rats cannulated at the jejunum (as described in Example 2) were fasted for 18 h. The fasted animals were administrated with a dose range of exogenous CCK8 using three formulations. Three groups served as controls: Rats administered with formulation alone; rats administered with CCK-8 in saline (0.165 mg
The volume of glucose solution consumption was measured at 30 min, 60 min and 90 min post administration. […]

| Structure (SMILES) | Fold from gavage [1] | Average volume of glucose solution consumed (± standard error) (conscious rats) | Median volume of glucose solution consumed (conscious rats) |
| --- | --- | --- | --- |
| COCCCOc1cc(C[C@@H](C[C@H](N)[C@@H](O)C[C@H](C(=O)NCC(C)(C)C(N)=O)C(C)C)C(C)C)ccc1OC [Aliskiren oral solution, aliskiren] | 1 | – | – |
| CSCC[C@H](NC(=O)[C@H](Cc1ccc(OS(=O)(=O)O)cc1)NC(=O)[C@@H](N)CC(=O)O)C(=O)NCC(=O)N[C@@H](Cc1c[nH]c2ccccc12)C(=O)N[C@@H](CCSC)C(=O)N[C@@H](CC(=O)O)C(=O)N[C@@H](Cc1ccccc1)C(N)=O [CCK8 in saline, Sincalide] | – | 6.80 ± 0.99 mL | 7.90 mL |
